Measured values: patent US20050106730A1, “Compositions and methods utilizing stable reporter cell lines for detection of pathway-specific signal transduction” (priority 1999, published 2005)

Experiments:
[1] = tested on: cAMP/CREB pathway (GAL4-CREB fusion); assay: Luciferase reporter assay in RCLH-CREB stable reporter cells treated with extracellular stimuli; format: cell-based, human; settings: in the presence of 100 uM forskolin, 5 hours
[2] = tested on: MAPK pathway converging on Elk1 (GAL4-Elk1 fusion); assay: Luciferase reporter assay in RCLH-Elk1 stable reporter cells treated with extracellular stimuli; settings: separate experiment

Compound	Stimulation of luciferase expression [1]	Activation of MAPK pathways [2]
CCCCCCCCCCCCCC(=O)O[C@@H]1[C@@H](C)[C@@]2(O)[C@@H](C=C(CO)C[C@]3(O)C(=O)C(C)=C[C@@H]23)[C@@H]2C(C)(C)[C@]12OC(C)=O [PMA, phorbol 12-myristate 13-acetate]	approximately 70 fold	–
TGF-α: growth factor found to activate MAPK pathways	–	also activates MAPK pathways
